{"source": "patent US6841701B2", "about": "“Inhibitors for the blood-clotting factor Xa” (Curacyte AG, priority 2000, dated 2005)", "key": {"[1]": {"system": "human citrate plasma", "assay": "Inhibition of the coagulation of human plasma: activated partial thromboplastin time (aPTT)", "assay_type": "biochemical", "protocol": "(§1) Determination of the Inhibition of Coagulation\n(§2) For the determination of the prothrombin time (PT), 100 μl of thromboplastin (Dade, Unterschleiβheim) and 100 μl of inhibitor, dissolved in CaCl2 (0.05 M, 5% ethanol) were incubated at 37° C. for 2 min and the coagulation was started by addition of 100 μl of human citrate plasma. For the determination of the activated partial thromboplastin time (aPTT), 100 μl of human citrate plasma were incubated with 100 μl of aPTT reagent (Roche Diagnostics, Mannheim) at 37° C. for 3 min and the coagulation was started by addition of 100 μl of inhibitor, dissolved in CaCl2 (0.05 M, 5% ethanol). The coagulation times were determined using the Thrombotrack coagulometer (Immuno, Heidelberg)."}, "[2]": {"system": "human citrate plasma", "assay": "Inhibition of the coagulation of human plasma: prothrombin time (PT)", "assay_type": "biochemical", "protocol": "as §1, §2"}, "[3]": {"target": "F Xa (Homo sapiens, UniProt P00742)", "sequence (P00742 235-488 limits assumed)": "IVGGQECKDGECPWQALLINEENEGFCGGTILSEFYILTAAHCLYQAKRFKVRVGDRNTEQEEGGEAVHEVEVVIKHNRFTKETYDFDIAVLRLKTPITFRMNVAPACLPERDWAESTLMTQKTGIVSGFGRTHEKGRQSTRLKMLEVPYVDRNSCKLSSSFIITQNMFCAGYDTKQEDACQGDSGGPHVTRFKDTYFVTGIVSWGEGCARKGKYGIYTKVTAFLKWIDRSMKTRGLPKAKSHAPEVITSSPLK", "sequence (P00742 41-179 partner limits assumed)": "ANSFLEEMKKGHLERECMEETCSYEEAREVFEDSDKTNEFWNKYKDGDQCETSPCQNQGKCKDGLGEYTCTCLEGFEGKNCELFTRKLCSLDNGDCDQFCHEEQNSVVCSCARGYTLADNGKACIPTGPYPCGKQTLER", "conditions": "cited from earlier work"}}, "note": "pKi: −log10 of the molar value. Counter-ions that a name gives are not always drawn. Like-named read-outs stand apart in the source and are kept apart here."}
{"smiles": "N=C(N)c1ccc(CNC(=O)CNC(=O)[C@@H](COCc2ccccc2)NS(=O)(=O)Cc2ccccc2)cc1", "note": "[Benzylsulfonyl-D-Ser(Bz)-Gly-4-amidinobenzylamide×TFA]", "values": [{"measurement": "Prolongation of the coagulation time (%) aPTT", "setting": "[1]; Concentration 0.1 μM", "value": 111, "unit": "%"}, {"measurement": "Prolongation of the coagulation time (%) aPTT", "setting": "[1]; Concentration 0.21 μM", "value": 122, "unit": "%"}, {"measurement": "Prolongation of the coagulation time (%) aPTT", "setting": "[1]; Concentration 0.42 μM", "value": 146, "unit": "%"}, {"measurement": "Prolongation of the coagulation time (%) aPTT", "setting": "[1]; Concentration 0.83 μM", "value": 185, "unit": "%"}, {"measurement": "Prolongation of the coagulation time (%) aPTT", "setting": "[1]; Concentration 1.7 μM", "value": 260, "unit": "%"}, {"measurement": "Prolongation of the coagulation time (%) aPTT", "setting": "[1]; Concentration 3.3 μM", "value": 385, "unit": "%"}, {"measurement": "Prolongation of the coagulation time (%) PT", "setting": "[2]; Concentration 0.1 μM", "value": 119, "unit": "%"}, {"measurement": "Prolongation of the coagulation time (%) PT", "setting": "[2]; Concentration 0.21 μM", "value": 127, "unit": "%"}, {"measurement": "Prolongation of the coagulation time (%) PT", "setting": "[2]; Concentration 0.42 μM", "value": 153, "unit": "%"}, {"measurement": "Prolongation of the coagulation time (%) PT", "setting": "[2]; Concentration 0.83 μM", "value": 198, "unit": "%"}, {"measurement": "Prolongation of the coagulation time (%) PT", "setting": "[2]; Concentration 1.7 μM", "value": 266, "unit": "%"}, {"measurement": "Prolongation of the coagulation time (%) PT", "setting": "[2]; Concentration 3.3 μM", "value": 386, "unit": "%"}]}
{"smiles": "N=C(N)c1ccc(CNC(=O)[C@@H]2CCN2C(=O)[C@H](NCC(=O)O)C2CCCCC2)cc1", "note": "[melagatran]", "values": [{"measurement": "pKi", "setting": "[3]; literature (Gustafsson et al. 1996)", "value": 5.55}]}
{"smiles": "N=C(N)c1ccc(C=C2CCCCC(=Cc3ccc(C(=N)N)cc3)C2=O)cc1", "note": "[BABCH]", "values": [{"measurement": "pKi", "setting": "[3]; literature", "value": 7.89}]}
